Measured values as given in article PMC4433622 (Cancer research, 2015).
Where a chain is given by its changes, count along the chain named. Numbers in names are those of the source. Peptide text beside a SMILES is read from it. * marks the point of attachment. Cbz = O=C(OCc1ccccc1)*; CH2F = FC*

What was measured:
[1] = tested on: IκBα, IKKα/β in MCF-7 cells; assay: TNFα-induced IκBα degradation and IKKα/β phosphorylation, immunoblotting; type: cell-based, human; conditions: for TNFα-induced IκBα degradation / TNFα-induced IKKα/β phosphorylation: TNFα 10 ng/ml, Z-10 7.5 µM, Z-12 5 µM
[2] = tested on: MCF-7 cells; assay: Apoptosis; type: cell-based, human; conditions: for apoptosis (PARP cleavage, nuclear fragmentation) together with TNFα / apoptosis (PARP cleavage, nuclear fragmentation), agent alone: MCF-7 cells, 9 h; for apoptosis (PARP cleavage, nuclear fragmentation) together with TNFα: with TNFα 10 ng/ml, Z-10 7.5 µM, Z-12 5 µM; for PARP cleavage induced by the combination of TNFα and Z compounds: effect of added agent on the combination
[3] = tested on: Akt; conditions: by preventing the interaction of tRXRα and p85α; cited from earlier work
[4] = molecular target: T1, Gal4-DBD-RXRα-LBD (Homo sapiens, UniProt P19793); assay: Mammalian one hybrid assay, Gal4-DBD-RXRα-LBD with pG5-luc reporter; type: cell-based; conditions: HEK293T cells; for Gal4-DBD-RXRα-LBD transcriptional activity (relative luciferase activity): 10 µM, 12 h
T1 sequence (P19793 227-458 limits assumed): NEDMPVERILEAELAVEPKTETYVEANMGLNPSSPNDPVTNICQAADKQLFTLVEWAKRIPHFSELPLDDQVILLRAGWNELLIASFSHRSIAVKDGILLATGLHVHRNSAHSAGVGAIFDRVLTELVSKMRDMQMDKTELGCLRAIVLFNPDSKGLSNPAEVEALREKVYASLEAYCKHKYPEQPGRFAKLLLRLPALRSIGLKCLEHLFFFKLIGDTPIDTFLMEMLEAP

[5] = molecular target: Gal4-DBD-RARα-LBD (Homo sapiens, UniProt P10276); assay: Mammalian one hybrid assay, Gal4-DBD-RARα-LBD; type: cell-based; conditions: HEK293T cells, 5 µM, 12 h
[6] = molecular target: RARγ (Homo sapiens, UniProt P13631); assay: Mammalian one hybrid assay, RARγ chimeric reporter; type: cell-based; conditions: HEK293T cells, 5 µM, 12 h
[7] = molecular target: Gal4-DBD-ERα-LBD (Homo sapiens, UniProt P03372); assay: Mammalian one hybrid assay, Gal4-DBD-ERα-LBD; type: cell-based; conditions: HEK293T cells, 5 µM, 12 h
[8] = molecular target: GR (Homo sapiens, UniProt P04150); assay: Mammalian one hybrid assay, GR chimeric reporter; type: cell-based; conditions: HEK293T cells, 5 µM, 12 h
[9] = molecular target: LXRα (Homo sapiens, UniProt Q13133); assay: Mammalian one hybrid assay, LXRα chimeric reporter; type: cell-based; conditions: HEK293T cells, 5 µM, 12 h
[10] = molecular target: PPARγ (Homo sapiens, UniProt P37231); assay: Mammalian one hybrid assay, PPARγ chimeric reporter; type: cell-based; conditions: HEK293T cells, 5 µM, 12 h
[11] = tested on: NFκB; assay: NFκB reporter gene assay; type: cell-based
[12] = tested on: p65 in MCF-7 cells; assay: TNFα-induced p65 nuclear translocation, immunostaining; type: cell-based, human; conditions: 10 µM pretreatment 1 h, TNFα 10 ng/ml 30 min
[13] = tested on: RIP1 in MCF-7 cells; assay: tRXRα-promoted TNFα-induced RIP1 ubiquitination; type: cell-based, human; conditions: 10 µM 1 h, TNFα 20 ng/ml 5 min
[14] = tested on: MCF-7 xenografts; assay: MCF-7 xenografts in nude mice; type: in vivo, Nude mice (BALB/c); conditions: MCF-7 bearing mice, 30 mg/kg oral once a day
[15] = molecular target: T2, RXRα-LBD (Homo sapiens, UniProt P19793); assay: Ligand competition assay with [3H]9-cis-RA; type: binding
T2 sequence (P19793 223-462): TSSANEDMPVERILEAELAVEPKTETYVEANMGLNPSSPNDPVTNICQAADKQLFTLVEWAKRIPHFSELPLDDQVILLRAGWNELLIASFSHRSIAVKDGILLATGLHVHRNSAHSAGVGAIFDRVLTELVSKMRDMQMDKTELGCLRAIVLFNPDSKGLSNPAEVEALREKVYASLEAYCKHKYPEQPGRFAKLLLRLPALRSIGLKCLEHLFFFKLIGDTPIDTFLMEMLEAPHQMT

[16] = molecular target: T2, RXRα-LBD; assay: Differential scanning calorimetry; type: binding
[17] = molecular target: T2, RXRα-LBD; assay: Non-denaturing PAGE of RXRα-LBD oligomers; conditions: Z compounds 10 µM, 9-cis-RA 0.5 µM, 3 h
[18] = molecular target: T2, RXRα-LBD; assay: Surface plasmon resonance; type: binding
[19] = molecular target: Gal4-DBD-RXRα-LBD/R316E (Homo sapiens, UniProt P19793, R316E); assay: Mammalian one hybrid assay, Gal4-DBD-RXRα-LBD/R316E; type: cell-based; conditions: HEK293T cells; 9-cis-RA 0.1 µM, Z-10 and Z-12 5 µM
[20] = molecular target: Gal4-DBD-RXRα-LBD C432S (Homo sapiens, UniProt P19793, C432S); assay: Mammalian one hybrid assay, Gal4-DBD-RXRα-LBD C432S mutant; type: cell-based; conditions: HEK293T cells; 9-cis-RA 0.1 µM, Z-10 and Z-12 5 µM
[21] = tested on: tRXRα with p85α; assay: TNFα-induced interaction of tRXRα with p85α; type: cell-based
[22] = molecular target: RXRα homodimer (Homo sapiens, UniProt P19793); assay: RXRE-luciferase reporter assay; conditions: HEK293T cells, 12 h
[23] = molecular target: tRXRα with TRAF2 (Homo sapiens, UniProt P19793); assay: TNFα-induced TRAF2/tRXRα complex formation, co-immunoprecipitation; conditions: HEK293T cells, 5 µM 1 h, TNFα 40 ng/ml 15 min
[24] = molecular target: the molecule itself; assay: SEC

Chain of PPARγ (P37231 238-503 limits assumed, species assumed): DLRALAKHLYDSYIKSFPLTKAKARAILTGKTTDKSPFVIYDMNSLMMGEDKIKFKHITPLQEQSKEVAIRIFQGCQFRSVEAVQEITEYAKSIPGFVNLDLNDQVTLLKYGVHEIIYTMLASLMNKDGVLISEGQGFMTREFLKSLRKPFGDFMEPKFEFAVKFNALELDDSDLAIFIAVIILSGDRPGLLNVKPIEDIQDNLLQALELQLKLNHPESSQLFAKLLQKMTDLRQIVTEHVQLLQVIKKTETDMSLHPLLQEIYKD
Chain of Gal4-DBD-ERα-LBD (P03372 311-547 limits assumed): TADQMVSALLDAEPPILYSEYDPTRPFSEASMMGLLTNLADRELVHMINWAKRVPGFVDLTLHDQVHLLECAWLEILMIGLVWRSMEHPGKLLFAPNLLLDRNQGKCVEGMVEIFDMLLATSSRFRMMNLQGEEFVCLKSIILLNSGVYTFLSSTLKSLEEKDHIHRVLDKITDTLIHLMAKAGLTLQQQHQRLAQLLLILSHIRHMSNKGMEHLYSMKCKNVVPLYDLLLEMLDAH
Chain of Gal4-DBD-RARα-LBD (P10276 183-417 limits assumed): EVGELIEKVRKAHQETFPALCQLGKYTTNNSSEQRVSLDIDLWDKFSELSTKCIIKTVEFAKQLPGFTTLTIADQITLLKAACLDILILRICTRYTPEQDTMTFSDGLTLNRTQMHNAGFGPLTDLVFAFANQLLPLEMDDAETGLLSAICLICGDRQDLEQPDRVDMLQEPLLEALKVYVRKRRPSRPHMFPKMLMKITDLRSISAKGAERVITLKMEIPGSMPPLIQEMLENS
Chain of GR (P04150 524-758 limits assumed): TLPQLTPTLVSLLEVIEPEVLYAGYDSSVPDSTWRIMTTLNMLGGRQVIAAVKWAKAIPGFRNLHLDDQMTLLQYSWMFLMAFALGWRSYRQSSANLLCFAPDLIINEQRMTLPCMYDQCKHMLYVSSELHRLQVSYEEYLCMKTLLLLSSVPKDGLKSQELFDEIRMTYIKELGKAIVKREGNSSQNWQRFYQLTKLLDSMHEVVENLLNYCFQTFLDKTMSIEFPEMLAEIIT
Chain of RARγ (P13631 185-419 limits assumed, species assumed): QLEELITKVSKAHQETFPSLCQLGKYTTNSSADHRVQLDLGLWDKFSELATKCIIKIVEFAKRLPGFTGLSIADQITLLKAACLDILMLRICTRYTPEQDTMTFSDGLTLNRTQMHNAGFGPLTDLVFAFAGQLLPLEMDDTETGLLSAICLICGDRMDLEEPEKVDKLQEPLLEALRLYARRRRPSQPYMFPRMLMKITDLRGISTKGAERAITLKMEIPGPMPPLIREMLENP
Chain of RXRα homodimer (P19793 whole entry): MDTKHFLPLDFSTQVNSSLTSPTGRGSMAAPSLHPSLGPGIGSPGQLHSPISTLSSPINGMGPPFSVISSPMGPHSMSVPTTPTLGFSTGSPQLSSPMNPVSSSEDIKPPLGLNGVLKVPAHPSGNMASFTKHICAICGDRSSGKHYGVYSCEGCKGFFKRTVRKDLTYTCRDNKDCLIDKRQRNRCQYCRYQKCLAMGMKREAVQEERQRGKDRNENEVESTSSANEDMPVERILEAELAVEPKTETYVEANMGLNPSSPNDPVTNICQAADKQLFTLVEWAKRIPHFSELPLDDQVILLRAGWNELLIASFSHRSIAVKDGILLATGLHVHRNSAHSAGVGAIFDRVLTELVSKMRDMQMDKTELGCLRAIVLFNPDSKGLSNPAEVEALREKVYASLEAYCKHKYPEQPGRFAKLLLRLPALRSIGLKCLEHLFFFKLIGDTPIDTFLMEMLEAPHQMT
Chain of LXRα (Q13133 209-447 limits assumed): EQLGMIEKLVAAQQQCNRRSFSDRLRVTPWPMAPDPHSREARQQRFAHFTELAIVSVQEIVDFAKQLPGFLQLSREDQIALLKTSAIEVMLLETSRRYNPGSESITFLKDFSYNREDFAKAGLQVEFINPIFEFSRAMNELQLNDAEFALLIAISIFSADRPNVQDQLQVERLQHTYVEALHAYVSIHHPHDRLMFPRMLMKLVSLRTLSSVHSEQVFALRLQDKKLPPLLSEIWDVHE
Chain of tRXRα with TRAF2 (P19793 81-462 limits assumed): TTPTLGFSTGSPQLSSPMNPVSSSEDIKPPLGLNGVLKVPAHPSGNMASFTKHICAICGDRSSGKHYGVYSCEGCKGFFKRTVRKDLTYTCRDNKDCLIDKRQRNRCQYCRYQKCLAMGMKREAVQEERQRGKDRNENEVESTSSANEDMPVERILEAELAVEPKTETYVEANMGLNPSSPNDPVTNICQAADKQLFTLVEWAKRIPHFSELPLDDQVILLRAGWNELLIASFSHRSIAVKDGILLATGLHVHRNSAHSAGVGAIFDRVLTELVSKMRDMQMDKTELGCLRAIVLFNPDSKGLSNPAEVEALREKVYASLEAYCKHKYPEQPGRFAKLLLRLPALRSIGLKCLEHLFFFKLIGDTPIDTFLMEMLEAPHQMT
Chain of Gal4-DBD-RXRα-LBD C432S (P19793 227-458 C432S limits assumed): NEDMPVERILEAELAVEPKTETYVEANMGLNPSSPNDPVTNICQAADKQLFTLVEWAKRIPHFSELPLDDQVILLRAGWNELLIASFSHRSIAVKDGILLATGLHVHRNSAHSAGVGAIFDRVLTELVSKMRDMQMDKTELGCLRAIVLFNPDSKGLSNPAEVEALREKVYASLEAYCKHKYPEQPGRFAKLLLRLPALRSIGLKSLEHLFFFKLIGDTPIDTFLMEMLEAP
Chain of Gal4-DBD-RXRα-LBD/R316E (P19793 227-458 R316E limits assumed): as the sequence (P19793 227-458 C432S limits assumed) above, with R90E, S206C counted along it

CC1=C(/C=C/C(C)=C\C=C\C(C)=C\C(=O)O)C(C)(C)CCC1 [9-cis-RA, 9-cis-retinoic acid]
TNFα-induced IκBα degradation ([1]; MCF-7 cells): did not show apparent effects
apoptosis (PARP cleavage, nuclear fragmentation) together with TNFα [2]: little effect
PARP cleavage induced by the combination of TNFα and Z compounds [2]: able to suppress

CC1=C(CC(=O)O)c2cc(F)ccc2/C1=C\c1ccc(C(C)C)cc1 [K-80003]
inhibition of TNFα-induced Akt activation [3]: could inhibit

CCCCCOc1cc2c(cc1-c1cc(/C=C/C(=O)O)ccc1O)C(C)(C)CCC2(C)C [UVI3003]
TNFα-induced IκBα degradation ([1]; MCF-7 cells): did not show apparent effects
apoptosis (PARP cleavage, nuclear fragmentation) together with TNFα [2]: little effect
PARP cleavage induced by the combination of TNFα and Z compounds [2]: able to suppress

Cc1ccc(/C=C/[N+](=O)[O-])cc1 [Z-1, (E)-1-methyl-4-(2-nitrovinyl)benzene]
Gal4-DBD-RXRα-LBD transcriptional activity (relative luciferase activity) [4]: selectively activated

O=[N+]([O-])/C=C/c1cccc2ccccc12 [Z-10, (E)-1-(2-nitrovinyl)naphthalene]
activation of RARα chimeric reporter [5]: neither of them significantly activated
activation of RARγ chimeric reporter [6]: neither of them significantly activated
activation of ERα chimeric reporter [7]: neither of them significantly activated
activation of GR chimeric reporter [8]: neither of them significantly activated
activation of LXRα chimeric reporter [9]: neither of them significantly activated
activation of PPARγ chimeric reporter [10]: neither of them significantly activated
inhibition of NFκB activation by TNFα (reporter gene assay) [11]: dose-dependently inhibited
TNFα-induced p65 nuclear translocation [12]: significantly inhibited
inhibitory effect on TNFα-induced IκBα degradation, MCF-7 versus H460 cells ([1]; 7.5 µM 1 h, TNFα 30 min, MCF-7 express higher RXRα and tRXRα than H460): stronger in MCF-7 cells
TNFα-induced IKKα/β phosphorylation ([1]; MCF-7 cells): significantly inhibited
TNFα-induced IκBα degradation ([1]; MCF-7 cells): significantly inhibited
RXRα/Δ80-promoted TNFα-induced RIP1 ubiquitination [13]: largely blocked
apoptosis (PARP cleavage, nuclear fragmentation), agent alone [2]: did not happen
apoptosis (PARP cleavage, nuclear fragmentation) together with TNFα [2]: significant apoptosis
tumor growth and apoptosis of cancer cells, compound alone [14]: Tumor growth inhibition and extensive apoptosis of cancer cells

O=[N+]([O-])/C=C/c1ccc2ccccc2c1 [Z-11, (E)-2-(2-nitrovinyl)naphthalene]
Gal4-DBD-RXRα-LBD transcriptional activity (relative luciferase activity) [4]: unable to activate RXRα
IC50 [15]: 330 nM
Tm values of RXRα-LBD protein (DSC) [16]: shifted higher
RXRα-LBD tetramer/dimer formation on native gel [17]: induced higher levels of RXRα-LBD oligomerization

O=[N+]([O-])/C=C/c1c2ccccc2cc2ccccc12 [Z-12, (E)-9-(2-nitrovinyl)anthracene]
RXRα transactivation, dose dependence [4]: dose-dependently activated
RXRα transactivation relative to activity of 0.1 µM 9-cis-RA ([4]; compound at 10 µM, % of activity of 0.1 µM 9-cis-RA): about 50%
activation of RARα chimeric reporter [5]: neither of them significantly activated
activation of RARγ chimeric reporter [6]: neither of them significantly activated
activation of ERα chimeric reporter [7]: neither of them significantly activated
activation of GR chimeric reporter [8]: neither of them significantly activated
activation of LXRα chimeric reporter [9]: neither of them significantly activated
activation of PPARγ chimeric reporter [10]: neither of them significantly activated
IC50 [15]: 810 nM
Kd [18]: 1950 nM
Tm values of RXRα-LBD protein (DSC) [16]: shifted higher
transactivation of Gal4-DBD-RXRα-LBD/R316E [19]: strongly activated
activation of Gal4-DBD-RXRα-LBD with Cys432 mutated to Ser [20]: completely incapacitated
inhibition of TNFα-induced interaction of tRXRα with p85α [21]: could not inhibit
TNFα-induced p65 nuclear translocation [12]: significantly inhibited
TNFα-induced IKKα/β phosphorylation ([1]; MCF-7 cells): significantly inhibited
TNFα-induced IκBα degradation ([1]; MCF-7 cells): significantly inhibited
effect on inhibiting TNFα-induced IκBα degradation when TRAF2 expression was suppressed by siRNA ([1]; MCF-7 cells, TRAF2 siRNA 36 h, TNFα 10 ng/ml 30 min): dramatically reduced
apoptosis (PARP cleavage, nuclear fragmentation), agent alone [2]: did not happen
apoptosis (PARP cleavage, nuclear fragmentation) together with TNFα [2]: significant apoptosis
tumor growth and apoptosis of cancer cells, compound alone [14]: Tumor growth inhibition and extensive apoptosis of cancer cells
RXRα-LBD tetramer/dimer formation on native gel [17]: induced homodimer formation
effect on 9-cis-RA-induced RXRα homodimer transactivation ([22]; 5 µM with 9-cis-RA 0.1 µM): inhibited 9-cis-RA-induced transactivation
transactivation of RXRα homodimer (RXRE-luciferase) ([22]; 5 µM): failed to induce the transactivation
TNFα-induced interaction of tRXRα with TRAF2 [23]: strongly inhibited

COC(=O)C[C@H](NC(=O)[C@H](C)NC(=O)[C@@H](NC(=O)OCc1ccccc1)C(C)C)C(=O)CF [Z-VAD-FMK] (Cbz-Val-Ala-Asp(OMe)-CH2F)
PARP cleavage induced by the combination of TNFα and Z compounds [2]: completely blocked

CD3254
TNFα-induced IκBα degradation ([1]; MCF-7 cells): did not show apparent effects
apoptosis (PARP cleavage, nuclear fragmentation) together with TNFα [2]: little effect
PARP cleavage induced by the combination of TNFα and Z compounds [2]: able to suppress

TNFα
apoptosis (PARP cleavage, nuclear fragmentation), agent alone [2]: did not happen

B1: RXRα-LBD/C432W (domain or fragment, human, UniProt P19793 223-462, looked up)
chain: T2 sequence (P19793 223-462) with C210W
stoichiometry N [24]: 2
